Experimental data reported in article PMC10044120, “Potent and selective covalent inhibition of the papain-like protease from SARS-CoV-2” (Nature Communications, 2023).
Where two headings read alike, the source gives them in different places.

Tests used:
[1] = target: PLpro from SARS-CoV-2 (Severe acute respiratory syndrome coronavirus 2, UniProt P0DTD1); experiment: biochemical; format: biochemical; set-up: mean (kobs plot, Supplementary Figure 6 II): unit: min^-1
[2] = target: SARS-CoV-2 PLpro (Severe acute respiratory syndrome coronavirus 2, UniProt P0DTD1); experiment: biochemical; conditions: PLpro 50 nM, Ub-rhodamine110
[3] = target: T1, USP30 (Homo sapiens, UniProt Q70CQ3); experiment: biochemical; conditions: USP30 10 nM, Ub-rhodamine110
T1 construct: purchased LifeSensors, Inc. (Malvern, PA)
T1 sequence (Q70CQ3 whole entry): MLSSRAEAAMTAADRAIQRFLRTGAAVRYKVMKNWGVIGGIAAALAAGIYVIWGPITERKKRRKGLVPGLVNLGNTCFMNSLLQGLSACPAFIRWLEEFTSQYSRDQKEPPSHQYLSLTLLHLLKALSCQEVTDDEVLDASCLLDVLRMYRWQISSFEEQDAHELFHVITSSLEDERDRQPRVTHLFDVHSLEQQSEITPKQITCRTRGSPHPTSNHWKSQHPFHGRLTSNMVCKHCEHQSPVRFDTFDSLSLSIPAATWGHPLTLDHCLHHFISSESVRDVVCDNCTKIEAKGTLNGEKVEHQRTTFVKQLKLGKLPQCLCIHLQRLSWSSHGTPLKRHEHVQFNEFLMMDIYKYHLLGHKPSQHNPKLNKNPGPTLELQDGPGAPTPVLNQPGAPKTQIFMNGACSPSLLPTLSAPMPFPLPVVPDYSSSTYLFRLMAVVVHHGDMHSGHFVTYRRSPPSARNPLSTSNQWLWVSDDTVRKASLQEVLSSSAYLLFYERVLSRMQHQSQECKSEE

[4] = target: T2, USP8 (Homo sapiens, UniProt P40818); experiment: biochemical; conditions: USP8 10 nM, Ub-rhodamine110
T2 construct: USP2c, USP4, USP7, USP8c, USP15, USP30WT, and UCH-L1; purchased LifeSensors, Inc. (Malvern, PA)
T2 sequence (P40818 777-1109): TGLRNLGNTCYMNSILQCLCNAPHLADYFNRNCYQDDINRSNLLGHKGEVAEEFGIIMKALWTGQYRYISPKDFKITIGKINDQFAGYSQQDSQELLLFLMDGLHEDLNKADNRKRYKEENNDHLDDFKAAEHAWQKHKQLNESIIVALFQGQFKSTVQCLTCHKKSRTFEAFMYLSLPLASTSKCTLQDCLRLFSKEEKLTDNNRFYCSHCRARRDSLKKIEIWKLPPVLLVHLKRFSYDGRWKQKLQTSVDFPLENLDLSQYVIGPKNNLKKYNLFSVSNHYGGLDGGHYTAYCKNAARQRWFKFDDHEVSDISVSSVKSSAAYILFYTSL

[5] = target: T3, USP4 (Homo sapiens, UniProt Q13107); experiment: DUB selectivity assay, USP4 (Ub-rhodamine110); format: biochemical; conditions: USP4 10 nM, Ub-rhodamine110; read-out: IC50
T3 construct: purchased LifeSensors, Inc. (Malvern, PA)
T3 sequence (Q13107 1-963): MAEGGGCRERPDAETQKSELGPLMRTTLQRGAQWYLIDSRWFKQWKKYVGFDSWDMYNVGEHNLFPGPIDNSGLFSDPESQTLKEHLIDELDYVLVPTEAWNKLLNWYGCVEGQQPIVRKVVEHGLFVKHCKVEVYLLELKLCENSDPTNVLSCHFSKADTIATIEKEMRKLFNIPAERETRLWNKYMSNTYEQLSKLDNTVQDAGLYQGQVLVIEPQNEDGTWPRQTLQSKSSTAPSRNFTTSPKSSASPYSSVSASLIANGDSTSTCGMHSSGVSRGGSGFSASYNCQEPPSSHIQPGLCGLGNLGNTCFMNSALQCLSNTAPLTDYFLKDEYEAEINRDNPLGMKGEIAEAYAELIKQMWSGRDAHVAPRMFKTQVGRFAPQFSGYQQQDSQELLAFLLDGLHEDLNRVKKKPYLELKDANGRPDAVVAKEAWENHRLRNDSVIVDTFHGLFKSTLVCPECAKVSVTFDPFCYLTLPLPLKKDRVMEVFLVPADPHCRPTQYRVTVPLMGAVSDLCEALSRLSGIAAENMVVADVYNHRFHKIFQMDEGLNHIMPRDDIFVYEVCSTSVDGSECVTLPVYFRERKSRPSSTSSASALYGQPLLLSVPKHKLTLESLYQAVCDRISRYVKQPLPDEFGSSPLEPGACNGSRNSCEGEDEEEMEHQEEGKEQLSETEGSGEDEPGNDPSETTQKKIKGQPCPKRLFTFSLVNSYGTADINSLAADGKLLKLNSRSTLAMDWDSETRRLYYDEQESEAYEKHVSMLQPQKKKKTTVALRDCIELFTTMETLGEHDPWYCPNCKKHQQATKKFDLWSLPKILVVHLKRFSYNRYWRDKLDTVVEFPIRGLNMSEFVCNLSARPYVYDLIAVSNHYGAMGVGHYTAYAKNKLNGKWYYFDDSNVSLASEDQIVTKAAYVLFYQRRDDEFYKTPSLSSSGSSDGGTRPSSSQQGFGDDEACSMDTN

[6] = target: T4, USP2 (Homo sapiens, UniProt O75604); experiment: biochemical; conditions: USP2 10 nM, Ub-rhodamine110
T4 construct: USP2c, USP4, USP7, USP8c, USP15, USP30WT, and UCH-L1; purchased LifeSensors, Inc. (Malvern, PA)
T4 sequence (O75604 267-599): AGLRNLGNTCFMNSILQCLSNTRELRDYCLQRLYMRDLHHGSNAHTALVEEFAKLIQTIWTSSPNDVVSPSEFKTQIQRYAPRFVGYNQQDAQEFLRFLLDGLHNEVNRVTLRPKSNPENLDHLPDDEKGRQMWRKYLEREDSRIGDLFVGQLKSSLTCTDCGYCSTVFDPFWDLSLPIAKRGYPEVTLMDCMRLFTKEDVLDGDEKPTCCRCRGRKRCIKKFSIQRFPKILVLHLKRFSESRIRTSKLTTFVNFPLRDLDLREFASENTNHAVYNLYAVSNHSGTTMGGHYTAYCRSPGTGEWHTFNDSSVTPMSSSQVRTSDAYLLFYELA

[7] = target: T5, UCHL1 (Homo sapiens, UniProt P09936); experiment: biochemical; conditions: UCHL1 10 nM, Ub-rhodamine110
T5 construct: purchased LifeSensors, Inc. (Malvern, PA)
T5 sequence (P09936 whole entry): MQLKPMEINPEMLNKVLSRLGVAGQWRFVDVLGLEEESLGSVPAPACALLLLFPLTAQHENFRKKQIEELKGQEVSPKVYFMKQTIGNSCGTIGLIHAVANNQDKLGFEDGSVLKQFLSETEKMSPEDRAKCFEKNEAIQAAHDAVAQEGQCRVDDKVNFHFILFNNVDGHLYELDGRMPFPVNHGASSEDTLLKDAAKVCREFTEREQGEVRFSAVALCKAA

[8] = Metabolic stability in rat liver microsomes; conditions: Sprague-Dawley
[9] = Metabolic stability in human liver S9 fraction

For `C[C@@H](NC(=O)c1ccccc1CCC(=O)NNC(=O)CCl)c1cccc2ccccc12` [Compound 9, (R)-2-(3-(2-(2-chloroacetyl)hydrazineyl)-3-oxopropyl)-N-(1-(naphthalen-1-yl)ethyl)benzamide], the remaining activity at 2 µM ([1]; […], read-out: PLpro activity after preincubation, inhibitor 2 uM, preincubation 45 min) was 56.1%, the remaining activity at 4 µM ([1]; […], read-out: PLpro activity after preincubation, inhibitor 4 uM, preincubation 15 min) was 73.3% and the remaining activity at 4 µM ([1]; […], read-out: PLpro activity after preincubation, inhibitor 4 uM, preincubation 45 min) was 30.6%. For the same compound, the remaining activity at 4 µM ([1]; […], read-out: PLpro activity after preincubation, inhibitor 4 uM, preincubation 90 min) was 18.5%, the remaining activity at 5 µM ([1]; […], read-out: PLpro activity after preincubation, inhibitor 5 uM, preincubation 15 min) was 57.4% and the remaining activity at 5 µM ([1]; […], read-out: PLpro activity after preincubation, inhibitor 5 uM, preincubation 45 min) was 20.3%. For the same compound, the remaining activity at 5 µM ([1]; […], read-out: PLpro activity after preincubation, inhibitor 5 uM, preincubation 90 min) was 9.23%, the remaining activity at 8 µM ([1]; […], read-out: PLpro activity after preincubation, inhibitor 8 uM, preincubation 45 min) was 12.3% and the remaining activity at 10 µM ([1]; […], read-out: PLpro activity after preincubation, inhibitor 10 uM, preincubation 15 min) was 49.7%. The remaining activity at 10 µM ([1]; […], read-out: PLpro activity after preincubation, inhibitor 10 uM, preincubation 45 min) was 14.1%, the remaining activity at 15 µM ([1]; […], read-out: PLpro activity after preincubation, inhibitor 15 uM, preincubation 15 min) was 40.2% and the remaining activity at 15 µM ([1]; […], read-out: PLpro activity after preincubation, inhibitor 15 uM, preincubation 45 min) was 10.8%. The remaining activity at 15 µM ([1]; […], read-out: PLpro activity after preincubation, inhibitor 15 uM, preincubation 90 min) was 12.6%, the remaining activity at 25 µM ([1]; […], read-out: PLpro activity after preincubation, inhibitor 25 uM, preincubation 15 min) was 17.8% and the remaining activity at 25 µM ([1]; […], read-out: PLpro activity after preincubation, inhibitor 25 uM, preincubation 90 min) was 10.7%. The remaining activity at 30 µM ([1]; […], read-out: PLpro activity after preincubation, inhibitor 30 uM, preincubation 15 min) was 29.9%, the remaining activity at 30 µM ([1]; […], read-out: PLpro activity after preincubation, inhibitor 30 uM, preincubation 45 min) was 6.98% and the remaining activity at 36 µM ([1]; […], read-out: PLpro activity after preincubation, inhibitor 36 uM, preincubation 15 min) was 18%. For the same compound, the remaining activity at 36 µM ([1]; […], read-out: PLpro activity after preincubation, inhibitor 36 uM, preincubation 45 min) was 6.34%, the “Time dep. (time-dependent inhibition)” value ([1]; fluorogenic peptide assay, varied preincubation time) was “Yes” and the “mean (kobs plot, Supplementary Figure 6 II)” value (from here on “mean”) ([1]; inhibitor 1 uM) was 0.0070. The “mean” value ([1]; inhibitor 2 uM) was 0.0147, the “mean” value ([1]; inhibitor 4 uM) was 0.0210 and the “mean” value ([1]; inhibitor 5 uM) was 0.0344. The “mean” value ([1]; inhibitor 8 uM) was 0.0503, the “mean” value ([1]; inhibitor 10 uM) was 0.0558 and the “mean” value ([1]; inhibitor 13 uM) was 0.0770. For the same compound, the “mean” value ([1]; inhibitor 15 uM) was 0.0658, the “mean” value ([1]; inhibitor 25 uM) was 0.0896 and the “mean” value ([1]; inhibitor 30 uM) was 0.0802. The “mean” value ([1]; inhibitor 36 uM) was 0.0968, the Hill slope [2] was 0.705 and the IC50 [2] was 1.96 µM. The IC50 [3] was > 30 µM, the IC50 [4] was > 30 µM and the IC50 [5] was > 30 µM. The IC50 [6] was > 30 µM, the IC50 [7] was > 30 µM and the half-life [8] was 13 min. For the same compound, the microsomal CLint [8] was 515 µL/min/mg, the half-life [9] was 3 min and the microsomal CLint [9] was 689 µL/min/mg.
